# Results reported in ChEMBL document CHEMBL1151432, “Increased susceptibility to colistin in hypermutable Pseudomonas aeruginosa strains from chronic respiratory infections” (Antimicrob Agents Chemother, 2007).
# How the values were obtained:
# Format in all cases: functional, organism-based
# Pseudomonas aeruginosa [1] = experiment: Antimicrobial activity against non-hypermutable Pseudomonas aeruginosa isolated from patients with chronic respiratory infection by Etest method
# Pseudomonas aeruginosa [2] = experiment: Antimicrobial activity against mutS-deficient Pseudomonas aeruginosa PAO1 by Etest method
# Pseudomonas aeruginosa [3] = experiment: Antimicrobial activity against Pseudomonas aeruginosa ATCC 27853 by Etest method
# Pseudomonas aeruginosa [4] = experiment: Antimicrobial activity against non-hypermutable Pseudomonas aeruginosa isolated from intensive care unit patients with chronic respiratory infection by Etest method
# Pseudomonas aeruginosa [5] = experiment: Antimicrobial activity against hypermutable Pseudomonas aeruginosa isolated from patients with chronic respiratory infection by Etest method
# Pseudomonas aeruginosa [6] = experiment: Antimicrobial activity against Pseudomonas aeruginosa PAO1 by Etest method
sequence,measurement,setting,value
COLISTIN,MIC,Pseudomonas aeruginosa [1],0.92 µg/mL
same,MIC,Pseudomonas aeruginosa [2],2 µg/mL
same,MIC,Pseudomonas aeruginosa [3],1 µg/mL
same,MIC,Pseudomonas aeruginosa [4],2 µg/mL
same,MIC,Pseudomonas aeruginosa [5],0.48 µg/mL
same,MIC,Pseudomonas aeruginosa [6],2 µg/mL
